Laboratory results published in patent US10828269B2, “Reducing muscle atrophy by administering astaxanthin” (FUJI CHEMICAL INDUSTRIES CO., LTD., priority 2004, dated 2020).

Key:
[1] = test system: transforming growth factor, beta 2; experiment: GENEchip mRNA expression in gastrocnemius; type: in vivo, rat; settings: probe 1387172_a_at
Experimental: (§1) After the period of test breeding, kidney was removed and frozen at −80° C. Using an LM200 system (Olympus Corporation), the renal glomerulus was cut from kidney of mice while keeping low temperature. tRNA of renal glomerulus was extracted using tRNA extraction regent “Isogen” (produced by Nippon Gene Co., Ltd.), and then preparation of cRNA and hybridization were performed according to the Affymetrix GeneChip Eukaryotic Small Sample Target Labeling Assay Ver. II.
(§2) (1) Synthesis of first strand cDNA: 1 μL of total RNA solution and 1 of 5 μM T7-Oligo(dT) primer were mixed, heated at 70° C. for 6 minutes, and then cooled at 4° C. for 2 minutes. 3 μL of RT_Premix_1 (1.5 μL DEPC-treated water, 4 μL 5× First strand Buffer, 2 μL DTT (0.1 M), 1.5 μL dNTP Mix (10 mM), 1 μL RNase inhibitor (40 U/μL), and 2 μL Super-Script II (200 U/μL)) was added and reverse transcribed at 42° C. for 1 hour. The sample was heated at 70° C. for 10 minutes to inactivate Super Script II, and then cooled to 4° C. (2) Synthesis of second strand cDNA: 32.5 μl of SS_Premix_1 (91 μL DEPC-treated water, 30 μL 5× Second Strand Buffer, 3 μL dNTP (10 mM), 1 μL E. coli DNA ligase (10 U/μL); 4 μL E. coli DNA polymerase (10 U/μL), and 1 μL RNase H (2 U/μL)) was added to the first strand cDNA solution and allowed to react for 2 hours at 16° C. (3) To the resulting cDNA, was added 1 μL T4 DNA polymerase (5 U/μl) and allowed to react for 10 minutes at 16° C., and purified by ethanol precipitation. (4) In vitro transcription: To the dried double-stranded cDNA pellet, was added 10 μL of reagents (4 μL DEPC-treated water, 4 μL premixed NTPs, 1 μL 10× reaction buffer, and 1 μL 10× enzyme mix), and allowed to react at 37° C. in a water bath for 6 hours. (5) First cycle cRNA was purified using the RNeasy Mini Kit in accordance with the protocol in the handbook (QIAGEN). (6) Subsequently, for the amplification and labeling, the cRNA sample was mixed with random primers (0.2 μg/μL), treated at 70° C. for 10 minutes, cooled on ice for 2 minutes, 5 μL of RT_Premix_2 (5× First Strand Buffer, DTT (0.1 M), dNTP mix (10 mM), RNase inhibitor (40 U/μL), and SuperScript II (200 U/μL) was added, and allowed to react at 42° C. for 1 hour. (7) Next, Second Sstrand cDNA synthesis was carried out by adding 5 μM T7-Oligo(dT) promoter treating at 70° C. for 6 minutes, cooling at 4° C., and adding 62 μL of SS_Premix_2 (43 μL it DEPC-treated water, 15 μL 5× Second Strand Buffer, 1.5 μL dNTP mix (10 mM), and 2 μL E. coli DNA polymerase (10 U/μL)). (8) To the resulting cDNA, was treated added 1 μL of T4 DNA polymerase (5 U/μL), allowed to react at 16° C. for 10 minutes, and purified by ethanol precipitation. (9) To perform in vitro transcription and labeling with the ENZO BioArray High Yield RNA Transcript Labeling Kit, 40 μL of reagents (22 μL DEPC-treated solution, 4 μL 10×HY reaction buffer, 4 μL 10× biotin-labeled ribonucleotides, 4 μL 10×DTT, 4 μL 10× RNase to inhibition mix, and 2 μL 20× T7 RNA polymerase) were added, and allowed to react at 37° C. for 4 hours. (10) Labeled cRNA target was purified with RNeasy columns. (11) The fragmentation and hybridization were performed according to “GeneChip Expression Analysis Technical Manual”.
(§3) The prepared labeled cRNA was hybridized to a GeneChip “mouse Expression Set 430A, representing a total of 22,690 mouse transcripts” (Affymetrix). For data analysis, the GeneChip Analysis Suite Ver. 5.1 (Affymetrix) was used. All microarrays were scaled to a target intensity of 1000 and were compared with background, noise, and overall staining intensity. Differentially expressed transcripts were identified by algorithms of the software y Affymetrix.
(§4) 9-week-old Wistar male rats were bred each being fed a normal diet for breeding and water ad libitum under the conditions with a 12 hours light-dark cycle at a temperature of 21° C. to 25° C. and were accustomed to the environment in advance. […]

[2] = test system: ATP-binding cassette, sub-family B (MDR/TAP), member; experiment: GENEchip mRNA expression in gastrocnemius; type: in vivo, rat; settings: probe 1369161_at
Experimental: as §1, §2, §3, §4

neuronatin = experiment: GENEchip mRNA expression in gastrocnemius; type: in vivo, rat; settings: probe 1369999_a_at
Experimental: [The source words this procedure for another organism and reports this organism under the same test.] as §1, §2, §3, §4

diabetic db/db mice = settings: Naito Y. et al, Redox Rep 2002; cited from earlier work
[3] = Takahashi Jiro et al, Rinsho Iyaku 2004; cited from earlier work
[4] = test system: gastrocnemius of Wistar male rats; experiment: Muscle atrophy test (sciatic nerve of left leg cut); type: in vivo, rat
Experimental: 9-week-old Wistar male rats were bred each being fed a normal diet for breeding and water ad libitum under the conditions with a 12 hours light-dark cycle at a temperature of 21° C. to 25° C. and were accustomed to the environment in advance. The rats were divided into two groups of 10 rats per group, and each group was bred with a normal diet (control group) or a diet to which astaxanthin was added (Ax group) fed ad libitum. The diet to which astaxanthin was added was prepared by mixing free astaxanthin at 0.02%. At one week after the start of ingestion of astaxanthin-added diet, the sciatic nerve of the left leg was cut and muscle of the left lower extremity was inactivated. After breeding for further two weeks, rats were killed, triceps surae (soleus muscle, gastrocnemius, and plantaris) were extracted from left leg (limb in which nerves were removed) and right leg (control limb), respectively, and the wet weight of the gastrocnemius was measured. The atrophy rate was calculated using the difference of the wet weight of the gastrocnemius of left lower limb to the wet weight of the gastrocnemius of right lower limb with respect to each group Table 7. […]

[5] = relative to β-carotene; cited from earlier work
[6] = denervated left leg gastrocnemius, astaxanthin group vs control group
[7] = denervated left leg gastrocnemius, astaxanthin-administered group
[8] = right leg (control) gastrocnemius, astaxanthin group vs control group
[9] = right leg (control) gastrocnemius, astaxanthin-administered group

## CC1=C(/C=C/C(C)=C/C=C/C(C)=C/C=C/C=C(C)/C=C/C=C(C)/C=C/C2=C(C)C(=O)C(O)CC2(C)C)C(C)(C)CC(O)C1=O (stereo not drawn) [astaxanthin, 3,3′-dihydroxy-β,β-carotene-4,4′-dione]
[1]; [6]
  gene expression intensity ratio ad/nd: 0.57
[1]; [7]
  luminescence intensity ad: 677.8
[1]; [8]
  gene expression intensity ratio ac/nc: 1.06
[1]; [9]
  luminescence intensity ac: 479.9
[2]; [6]
  gene expression intensity ratio ad/nd: 1.41
[2]; [7]
  luminescence intensity ad: 306.9
[2]; [8]
  gene expression intensity ratio ac/nc: 1.34
[2]; [9]
  luminescence intensity ac: 677.1
neuronatin; [6]
  gene expression intensity ratio ad/nd: 0.61
neuronatin; [7]
  luminescence intensity ad: 640.7
neuronatin; [8]
  gene expression intensity ratio ac/nc: 0.79
neuronatin; [9]
  luminescence intensity ac: 106.4
Diabetic db/db mice
  blood glucose level: reduces blood glucose level
  diabetic nephropathy: has an effect on the improvement of diabetic nephropathy
[3]
  mutagenicity: has not been observed having any mutagenicity
[4]; difference of wet weight of left to right gastrocnemius, Ax group
  Gastrocnemius Atrophy rate: 37.7%
[4]; risk rate 5% or less
  atrophy rate compared with the control group: smaller value of atrophy rate
[5]
  antioxidant effect, times as strong as β-carotene: about 40 times
